From PubChem BioAssay AID2060492 (Molecular Pharmacology Branch, DTP, NCI, 2025)

Tested on: 695427-040-R-J1-PDC complex spheroids, viability percent T/C
Assay: Anticancer human tumor 695427-040-R-J1-PDC patient-derived colon adenocarcinoma cell line growth inhibition [GQUAD]
Settings: for IC50: curve of first compound; for viability, T/C: stronger effect = lower value
Outline: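 Multi-cell-type spheroids of tumor cells with HUVEC and mesenchymal stem cells, treated with drug combinations. Concentrations descend in half-log steps from near clinical Cmax, or from 10 microM where Cmax is unknown; viability read-out.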

[1] = second compound 0.0316 µM, first compound 0.0316 µM
[2] = second compound 0.0316 µM, first compound 0.1 µM
[3] = second compound 0.0316 µM, first compound 0.316 µM
[4] = second compound 0.0316 µM, first compound 1 µM
[5] = second compound 0.0316 µM, first compound 3.16 µM
[6] = second compound 0.0316 µM, first compound 10 µM
[7] = second compound 0.1 µM, first compound 0.0316 µM
[8] = second compound 0.1 µM, first compound 0.1 µM
[9] = second compound 0.1 µM, first compound 0.316 µM
[10] = second compound 0.1 µM, first compound 1 µM
[11] = second compound 0.1 µM, first compound 3.16 µM
[12] = second compound 0.1 µM, first compound 10 µM
[13] = second compound 0.316 µM, first compound 0.0316 µM
[14] = second compound 0.316 µM, first compound 0.1 µM
[15] = second compound 0.316 µM, first compound 0.316 µM
[16] = second compound 0.316 µM, first compound 1 µM
[17] = second compound 0.316 µM, first compound 3.16 µM
[18] = second compound 0.316 µM, first compound 10 µM
[19] = second compound 1 µM, first compound 0.0316 µM
[20] = second compound 1 µM, first compound 0.1 µM
[21] = second compound 1 µM, first compound 0.316 µM
[22] = second compound 1 µM, first compound 1 µM
[23] = second compound 1 µM, first compound 3.16 µM
[24] = second compound 1 µM, first compound 10 µM
[25] = second compound 3.16 µM, first compound 0.0316 µM
[26] = second compound 3.16 µM, first compound 0.1 µM
[27] = second compound 3.16 µM, first compound 0.316 µM
[28] = second compound 3.16 µM, first compound 1 µM
[29] = second compound 3.16 µM, first compound 3.16 µM
[30] = second compound 3.16 µM, first compound 10 µM
[31] = second compound 10 µM, first compound 0.0316 µM
[32] = second compound 10 µM, first compound 0.1 µM
[33] = second compound 10 µM, first compound 0.316 µM
[34] = second compound 10 µM, first compound 1 µM
[35] = second compound 10 µM, first compound 3.16 µM
[36] = second compound 10 µM, first compound 10 µM
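Note: spheroids exposed to compounds for seven days before readout.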

## CC(=O)O[C@H]1C(=O)[C@@]2(C)[C@H]([C@H](OC(=O)c3ccccc3)[C@]3(O)C[C@H](OC(=O)[C@H](O)[C@@H](NC(=O)c4ccccc4)c4ccccc4)C(C)=C1C3(C)C)[C@]1(OC(C)=O)CO[C@@H]1C[C@@H]2O + Cc1[nH]c2ccc(F)cc2c1-c1nc2c3cccnc3c3ncccc3c2[nH]1
Second compound 0.0316 µM
  IC50: 0.458 µM
Second compound 0.1 µM
  IC50: 0.467 µM
Second compound 0.316 µM
  IC50: 0.451 µM
Second compound 1 µM
  IC50: 0.469 µM
Second compound 3.16 µM
  IC50: 0.453 µM
Second compound 10 µM
  IC50: 0.496 µM
[1]
  viability, T/C: 99.4%
[2]
  viability, T/C: 92.9%
[3]
  viability, T/C: 71.6%
[4]
  viability, T/C: 4.67%
[5]
  viability, T/C: 0.18%
[6]
  viability, T/C: 0.29%
[7]
  viability, T/C: 103%
[8]
  viability, T/C: 97.7%
[9]
  viability, T/C: 73.2%
[10]
  viability, T/C: 4.64%
[11]
  viability, T/C: 0.18%
[12]
  viability, T/C: 0.45%
[13]
  viability, T/C: 102%
[14]
  viability, T/C: 91.2%
[15]
  viability, T/C: 69.8%
[16]
  viability, T/C: 6.24%
[17]
  viability, T/C: 0.21%
[18]
  viability, T/C: 0.26%
[19]
  viability, T/C: 89.3%
[20]
  viability, T/C: 87%
[21]
  viability, T/C: 72.2%
[22]
  viability, T/C: 7.42%
[23]
  viability, T/C: 0.2%
[24]
  viability, T/C: 0.87%
[25]
  viability, T/C: 78.3%
[26]
  viability, T/C: 82.9%
[27]
  viability, T/C: 69.4%
[28]
  viability, T/C: 7.14%
[29]
  viability, T/C: 0.33%
[30]
  viability, T/C: 0.32%
[31]
  viability, T/C: 77.1%
[32]
  viability, T/C: 79.7%
[33]
  viability, T/C: 75.7%
[34]
  viability, T/C: 10%
[35]
  viability, T/C: 0.5%
[36]
  viability, T/C: 0.22%

## CCCS(=O)(=O)Nc1ccc(F)c(C(=O)c2c[nH]c3ncc(-c4ccc(Cl)cc4)cc23)c1F + Cc1[nH]c2ccc(F)cc2c1-c1nc2c3cccnc3c3ncccc3c2[nH]1
Second compound 0.0316 µM
  IC50: > 10 µM
Second compound 0.1 µM
  IC50: > 10 µM
Second compound 0.316 µM
  IC50: > 10 µM
Second compound 1 µM
  IC50: 9.22 µM
Second compound 3.16 µM
  IC50: 5.02 µM
Second compound 10 µM
  IC50: 2.51 µM
[1]
  viability, T/C: 97.4%
[2]
  viability, T/C: 89.3%
[3]
  viability, T/C: 92.5%
[4]
  viability, T/C: 84.3%
[5]
  viability, T/C: 70.9%
[6]
  viability, T/C: 60.1%
[7]
  viability, T/C: 109%
[8]
  viability, T/C: 99.2%
[9]
  viability, T/C: 86%
[10]
  viability, T/C: 77.6%
[11]
  viability, T/C: 70.9%
[12]
  viability, T/C: 53.8%
[13]
  viability, T/C: 107%
[14]
  viability, T/C: 93.9%
[15]
  viability, T/C: 77.7%
[16]
  viability, T/C: 73.4%
[17]
  viability, T/C: 66.6%
[18]
  viability, T/C: 54.7%
[19]
  viability, T/C: 93.9%
[20]
  viability, T/C: 89.8%
[21]
  viability, T/C: 85.3%
[22]
  viability, T/C: 76.2%
[23]
  viability, T/C: 63.9%
[24]
  viability, T/C: 49%
[25]
  viability, T/C: 84%
[26]
  viability, T/C: 86.2%
[27]
  viability, T/C: 72%
[28]
  viability, T/C: 71.2%
[29]
  viability, T/C: 56.5%
[30]
  viability, T/C: 39.8%
[31]
  viability, T/C: 69.2%
[32]
  viability, T/C: 72.6%
[33]
  viability, T/C: 63.3%
[34]
  viability, T/C: 66%
[35]
  viability, T/C: 46%
[36]
  viability, T/C: 37.1%

## Cc1[nH]c2ccccc2c1CCNCc1ccc(/C=C/C(=O)NO)cc1 + Cc1[nH]c2ccc(F)cc2c1-c1nc2c3cccnc3c3ncccc3c2[nH]1
Second compound 0.0316 µM
  IC50: > 0.316 µM
Second compound 0.1 µM
  IC50: > 0.316 µM
Second compound 0.316 µM
  IC50: > 0.316 µM
Second compound 1 µM
  IC50: > 0.316 µM
Second compound 3.16 µM
  IC50: > 0.316 µM
Second compound 10 µM
  IC50: > 0.316 µM
Second compound 0.0316 µM, first compound 0.000999 µM
  viability, T/C: 109%
Second compound 0.0316 µM, first compound 0.00316 µM
  viability, T/C: 90%
Second compound 0.0316 µM, first compound 0.00999 µM
  viability, T/C: 101%
[1]
  viability, T/C: 102%
Second compound 0.0316 µM, first compound 0.0999 µM
  viability, T/C: 106%
[3]
  viability, T/C: 94.5%
Second compound 0.1 µM, first compound 0.000999 µM
  viability, T/C: 115%
Second compound 0.1 µM, first compound 0.00316 µM
  viability, T/C: 94.5%
Second compound 0.1 µM, first compound 0.00999 µM
  viability, T/C: 91.1%
[7]
  viability, T/C: 93.4%
Second compound 0.1 µM, first compound 0.0999 µM
  viability, T/C: 95.7%
[9]
  viability, T/C: 88.6%
Second compound 0.316 µM, first compound 0.000999 µM
  viability, T/C: 98.8%
Second compound 0.316 µM, first compound 0.00316 µM
  viability, T/C: 84.8%
Second compound 0.316 µM, first compound 0.00999 µM
  viability, T/C: 94.2%
[13]
  viability, T/C: 104%
Second compound 0.316 µM, first compound 0.0999 µM
  viability, T/C: 100%
[15]
  viability, T/C: 86.7%
Second compound 1 µM, first compound 0.000999 µM
  viability, T/C: 94.3%
Second compound 1 µM, first compound 0.00316 µM
  viability, T/C: 88.6%
Second compound 1 µM, first compound 0.00999 µM
  viability, T/C: 96.8%
[19]
  viability, T/C: 93.5%
Second compound 1 µM, first compound 0.0999 µM
  viability, T/C: 98.9%
[21]
  viability, T/C: 90.8%
Second compound 3.16 µM, first compound 0.000999 µM
  viability, T/C: 75.2%
Second compound 3.16 µM, first compound 0.00316 µM
  viability, T/C: 78.3%
Second compound 3.16 µM, first compound 0.00999 µM
  viability, T/C: 86%
[25]
  viability, T/C: 74.5%
Second compound 3.16 µM, first compound 0.0999 µM
  viability, T/C: 78%
[27]
  viability, T/C: 67.3%
Second compound 10 µM, first compound 0.000999 µM
  viability, T/C: 74.8%
Second compound 10 µM, first compound 0.00316 µM
  viability, T/C: 77.6%
Second compound 10 µM, first compound 0.00999 µM
  viability, T/C: 71.8%
[31]
  viability, T/C: 75.9%
Second compound 10 µM, first compound 0.0999 µM
  viability, T/C: 74.8%
[33]
  viability, T/C: 63.4%

## O=C(NO)c1cnc(N2CCN(S(=O)(=O)c3ccc4ccccc4c3)CC2)nc1 + Cc1[nH]c2ccc(F)cc2c1-c1nc2c3cccnc3c3ncccc3c2[nH]1
Second compound 0.0316 µM
  IC50: > 10 µM
Second compound 0.1 µM
  IC50: > 10 µM
Second compound 0.316 µM
  IC50: > 10 µM
Second compound 1 µM
  IC50: > 10 µM
Second compound 3.16 µM
  IC50: > 10 µM
Second compound 10 µM
  IC50: > 10 µM
[1]
  viability, T/C: 90.4%
[2]
  viability, T/C: 106%
[3]
  viability, T/C: 94.3%
[4]
  viability, T/C: 87.5%
[5]
  viability, T/C: 78.7%
[6]
  viability, T/C: 74.7%
[7]
  viability, T/C: 98.4%
[8]
  viability, T/C: 91.1%
[9]
  viability, T/C: 83%
[10]
  viability, T/C: 87%
[11]
  viability, T/C: 81.3%
[12]
  viability, T/C: 68.5%
[13]
  viability, T/C: 99.1%
[14]
  viability, T/C: 89.4%
[15]
  viability, T/C: 81.9%
[16]
  viability, T/C: 82.6%
[17]
  viability, T/C: 80.5%
[18]
  viability, T/C: 65.6%
[19]
  viability, T/C: 95%
[20]
  viability, T/C: 86%
[21]
  viability, T/C: 84.8%
[22]
  viability, T/C: 82%
[23]
  viability, T/C: 77.9%
[24]
  viability, T/C: 61.5%
[25]
  viability, T/C: 76.5%
[26]
  viability, T/C: 71.2%
[27]
  viability, T/C: 71.2%
[28]
  viability, T/C: 73.5%
[29]
  viability, T/C: 57.3%
[30]
  viability, T/C: 54.5%
[31]
  viability, T/C: 69.6%
[32]
  viability, T/C: 73.1%
[33]
  viability, T/C: 73.8%
[34]
  viability, T/C: 60.5%
[35]
  viability, T/C: 54.3%
[36]
  viability, T/C: 50.5%
